According to US20240383955A1, “MODIFIED ANTIMICROBIAL PEPTIDES” (priority 2021, published 2024):
In brackets after ≈: the same amount, converted by molar mass. Square brackets hold non-standard residues; d marks the D form. Peptide text beside a SMILES is read from it. Dab = NCC[C@H](N)C(=O)O

Experiments:
P. variotii = test: MIC by CLSI M27/M38 methodology; format: cell-based; conditions: P. variotii isolate MYA-363; Table 8
C. krusei = test: MIC by CLSI M27/M38 methodology; format: cell-based; conditions: C. krusei isolate ATCC 6258; Table 8

| Structure (SMILES) | MIC, 100% (P. variotii) [µg/mL] | MIC, 100% (C. krusei) [µg/mL] |
| --- | --- | --- |
| CC[C@H](C)[C@H](NC(=O)[C@H](CCCNC(=N)N)NC(=O)[C@@H](NC(=O)[C@H](CS)NC(=O)[C@H](Cc1ccccc1)NC(=O)[C@H](CS)NC(=O)[C@H](CCCNC(=N)N)NC(=O)[C@H](CCCNC(=N)N)NC(=O)[C@H](CCCNC(=N)N)NC(=O)[C@H](Cc1ccccc1)NC(=O)CNC(=O)[C@H](CCCNC(=N)N)NC(=O)[C@H](CS)NC(=O)[C@H](CCCNC(=N)N)NC(=O)CNC(=O)CN)[C@@H](C)O)C(=O)N[C@@H](CS)C(N)=O [GMA4C_V2A] (H-GGRCRGFRRRCFCTRIC-NH2; N-terminus assumed) | 8 (≈ 3.91 µM) | 16 (≈ 7.82 µM) |
| N=C(N)NCCC[C@H](NC(=O)CNC(=O)[C@@H](N)Cc1ccccc1)C(=O)N[C@@H](CS)C(=O)N[C@@H](CCCNC(=N)N)C(=O)NCC(=O)N[C@@H](Cc1ccccc1)C(=O)N[C@@H](CCCNC(=N)N)C(=O)N[C@@H](CCCNC(=N)N)C(=O)N[C@@H](CCCNC(=N)N)C(=O)N[C@@H](CS)C(=O)N[C@@H](Cc1ccccc1)C(=O)N[C@@H](CS)C(=O)N[C@@H](Cc1c[nH]c2ccccc12)C(=O)N[C@@H](CCCNC(=N)N)C(=O)N[C@@H](Cc1c[nH]c2ccccc12)C(=O)N[C@@H](CS)C(N)=O [GMA4C_V4A] (H-FGRCRGFRRRCFCWRWC-NH2; N-terminus assumed) | 8 (≈ 3.49 µM) | 8 (≈ 3.49 µM) |
| NCC[C@H](NC(=O)CNC(=O)[C@@H](N)Cc1ccccc1)C(=O)N[C@@H](CS)C(=O)N[C@@H](CCN)C(=O)NCC(=O)N[C@@H](Cc1ccccc1)C(=O)N[C@@H](CCN)C(=O)N[C@@H](CCN)C(=O)N[C@@H](CCN)C(=O)N[C@@H](CS)C(=O)N[C@@H](Cc1ccccc1)C(=O)N[C@@H](CS)C(=O)N[C@@H](Cc1c[nH]c2ccccc12)C(=O)N[C@@H](CCN)C(=O)N[C@@H](Cc1c[nH]c2ccccc12)C(=O)N[C@@H](CS)C(N)=O [GMA4C_V5A, FG(Dab)C(Dab)GF(Dab)(Dab)(Dab)CFCW(Dab)WC-NH2] (H-FG[Dab]C[Dab]GF[Dab][Dab][Dab]CFCW[Dab]WC-NH2; N-terminus assumed) | 4 (≈ 2.04 µM) | 8 (≈ 4.08 µM) |
